Earlier results on 1 compound are cited in US4496540A, “Therapeutic compounds” (Biomeasure, Inc., priority 1982, dated 1985).

The series deals with enkephalinase.

On to `O=C(O)CNC(=O)C(CS)Cc1ccccc1` (racemic) [Thiorphan, (DL-3-mercapto-2-benzylpropanoyl) glycine], for which the “protection of the enkephalins from the action of enkephalinase in vitro” value (in vitro, Roques et al. (1980)) is listed as “protects the enkephalins from the action of enkephalinase in vitro in nanomolar concentration”. Also, the inhibition of enkephalinase result (known inhibitors, Llorens et al. (1981)) is “inhibited”.
